{"source": "patent US8486429B2", "about": "“Storage stable formulation and a process for its preparation” (priority 2005, dated 2013)", "key": {"insect": {"tested_on": "insect", "experiment": "Synergistic insecticidal effect of Imidacloprid + Acephate (mortality, Colby's method)", "assay_type": "in vivo", "method": "Synergism can be calculated by using the Colby's method i.e. the expected (or predicted) response of the combination is calculated by taking the product of the observed response for each individual component of the combination when applied alone divided by 100 and subtracting this value from the sum of observed response for each component when applied alone. Synergism of the combination is then determined by comparing the observed response of the combination to the expected (or predicted) response as calculated from the observed response of each individual component alone. If the observed response of the combination is greater than the expected (or predicted) response then the combination is said to be synergistic and falls within the definition of synergistic effect. (Colby, S. R., Weeds, 1967(15), p. 20-22)"}, "rats [1]": {"tested_on": "rats", "settings": "cited from earlier work"}, "rabbits": {"tested_on": "rabbits", "settings": "cited from earlier work"}, "[2]": {"settings": "cited from earlier work; for DT50 (hydrolysis): 40° C.; for DT 50 (calculated) (hydrolysis): 20° C."}, "rats [3]": {"tested_on": "rats", "settings": "cited from earlier work", "remark": "listed apart in the source"}, "[4]": {"settings": "in vivo; cited from earlier work"}, "[5]": {"experiment": "AHS stability study in trilaminated pouches, 14 days at 30, 45 and 54° C.: active content and pH of 1% aq. solution/suspension", "assay_type": "physicochemical", "settings": "for extent to which Acephate degrades: 54° C.", "method": "Acephate technical of 97.5% purity was taken and kept in AHS stability study at 30, 45 and 54° C. in trilaminated pouches. The results of the AHS experiment for Acephate Technical are seen in the following Tables 1, 2 and 3.\n40 gm Acephate technical of 97.5% purity was taken from plant and mixed with 10 gm of citric acid by using laboratory made mixture to obtained homogenious powder and is then kept in AHS at 30, 45 and 54° C. in trilaminated pouches.\n40 gm Acephate technical of 97.5% purity was taken from plant and mixed with 5 gm of citric acid by using laboratory made mixture to obtained homogenious powder and is the kept in AHS at 30, 45 and 54° C. in trilaminated pouches.\n48 gm Acephate technical of 97.5% purity was taken from plant and mixed with 2 gm of citric acid by using laboratory made mixture to obtained homogenious powder and is the kept in AHS at 30, 45 and 54° C. in trilaminated pouches.\nAcephate technical of 97.5% purity was taken from the plant and mixed in a laboratory mixer by adding 1% water and was then kept in AHS stability study at 30° C., 45° C. and 54° C. in trilaminated pouches.\nAcephate technical of 97.5% purity was taken from the plant and mixed in laboratory mixer by adding 1% water 4% citric acid and was then kept in AHS stability study at 30, 45 and 54° C. in trilaminated pouches.\nImidacloprid technical was taken from the plant and is kept in AHS stability study at 30, 45 and 54° C. in trilaminated pouches.\nImidacloprid technical was taken from the plant and mixed in laboratory mixer by adding 1% water and is then is kept in AHS stability study at 45 and 54° C. in trilaminated pouches.\n40 gm of Imidacloprid technical and 10 gm of citric acid was mixed in laboratory mixer and was then kept in AHS stability study at 30, 45 and 54° C. in trilaminated pouches,\n45 gm of Imidacloprid technical and 05 gm of citric acid was mixed in laboratory mixer and was then kept in AHS stability study at 30° C., 45° C. and 54° C. in trilaminated pouches.\n48 gm of Imidacloprid technical and 2 gm of citric acid was mixed in laboratory mixer and was then kept in AHS stability study at 30, 45 and 54° C. in trilaminated pouches.\n49.5 gm of Imidacloprid technical and 0.5 gm of citric acid was mixed in laboratory mixer and was then kept in AHS stability study at 30, 45 and 54° C. in trilaminated pouches.\nImidacloprid technical was taken from plant and mixed in laboratory mixer by adding 10 gm citric acid and 2 gm water and is then is kept in AHS stability study at 30, 45 and 54° C. in trilaminated pouches,\nImidacloprid technical was taken from the plant and mixed in laboratory mixer by adding 5 gm citric acid and 2 gm water and was then kept in AHS stability study at 30, 45 and 54° C. in trilaminated pouches.\n53 gm of Acephate technical was taken from the plant and mixed in a laboratory mixer by adding 3 gm imidacloprid without coating and without any citric acid. This was then kept in AHS stability study at 30, 45 and 54° C. in trilaminated pouches.\n53 gm of Acephate technical was taken from the plant and mixed in a laboratory mixer by adding 3 gm imidacloprid without encapsulation and with 2.2 gm of citric acid . This was then kept in AHS stability study at 30, 45 and 54° C. in trilaminated pouches.\nIn a laboratory plough shear mixture 291.5 gm of Imidacloprid of particle size ranging from 15 micron to 50 micron was charged and blended by operating only the plough. Then 204 gm PEG-8000 was heated in a separate vessel at 65° C. for 15 min. […]"}, "[6]": {"settings": "cited from earlier work"}, "rats [7]": {"tested_on": "rats", "settings": "cited from earlier work", "remark": "listed apart in the source"}, "mice": {"tested_on": "mice", "settings": "cited from earlier work"}, "crop plants": {"tested_on": "crop plants", "settings": "in vivo; cited from earlier work"}, "[8]": {"settings": "mammals, oral administration, within 24 hours, almost entirely in the urine; cited from earlier work"}}, "note": "Where two headings read alike, the source gives them in different places.", "data": [{"molecule": "O=[N+]([O-])NC1=NCCN1Cc1ccc(Cl)nc1", "note": "[Experiment 7, 1-(6-chloro-3-pyridylmet-hyl)-N-nitroimidazolidin-2-yldeneamine]", "values": [{"measurement": "Observed Mortality %", "setting": "insect; Imidacloprid 24 ppm, Acephate 0 ppm", "value": 55.00, "unit": "%"}, {"measurement": "Observed Mortality %", "setting": "insect; Imidacloprid 27 ppm, Acephate 0 ppm", "value": 69.25, "unit": "%"}, {"measurement": "Observed Mortality %", "setting": "insect; Imidacloprid 30 ppm, Acephate 0 ppm", "value": 72.10, "unit": "%"}, {"measurement": "Acute percutaneous LD50 (24 h)", "setting": "rats [1]; rats, 24 h", "value": "> 5000", "unit": "mg/kg"}, {"measurement": "irritation to skin and eyes", "setting": "rabbits", "value": "Non irritating"}, {"measurement": "Stability of imidacloprid reported in literature", "setting": "[2]; pH of 5.60", "value": "stable"}, {"measurement": "inhalation LC50 (4 h)", "setting": "rats [3]; female rats, aerosol", "value": "> 5323", "unit": "mg/m^3 air"}, {"measurement": "skin sensitisation", "setting": "[4]", "value": "Not a skin sensitiser"}, {"measurement": "Stability of Imidacloprid", "setting": "[5]; pH of 2.68, Imidacloprid:citric acid 40:10", "value": "still more unstable"}, {"measurement": "Stability of Imidacloprid", "setting": "[5]; pH of 3.60, Imidacloprid:Citric acid 49.5:0.5", "value": "unstable"}, {"measurement": "Stability of Imidacloprid", "setting": "[5]; pH of 5.90", "value": "stable"}, {"measurement": "solubility in hexane", "setting": "[6]; 20° C.", "value": "< 0.1", "unit": "mg/mL"}]}, {"molecule": "C/C(=N\\C#N)N(C)Cc1ccc(Cl)nc1", "note": "[Acetamiprid]", "values": [{"measurement": "Acute percutaneous LD50", "setting": "rats [1]; male and female rats", "value": "> 2000", "unit": "mg/kg"}, {"measurement": "acute oral LD50", "setting": "rats [7]; female rats", "value": 146, "unit": "mg/kg"}, {"measurement": "acute oral LD50", "setting": "rats [7]; male rats", "value": 217, "unit": "mg/kg"}, {"measurement": "acute oral LD50", "setting": "mice; female mice", "value": 184, "unit": "mg/kg"}, {"measurement": "acute oral LD50", "setting": "mice; male mice", "value": 198, "unit": "mg/kg"}, {"measurement": "irritation to skin and eyes", "setting": "rabbits", "value": "Non irritating"}, {"measurement": "stability in buffered solutions", "setting": "[2]; pH 4, 5, 7", "value": "Stable"}, {"measurement": "stability", "setting": "[2]; pH 9 and 45° C.", "value": "Degraded slowly"}, {"measurement": "stability under sunlight", "setting": "[2]; sunlight", "value": "Stable"}, {"measurement": "inhalation LC50 (4 h)", "setting": "rats [3]; male and female rats", "value": "> 0.29", "unit": "mg/L"}, {"measurement": "solubility in organic solvents", "setting": "[6]; acetone, methanol, ethanol, dichloromethane, chloroform, acetonitrile and tetrahydrofuron", "value": "soluble"}]}, {"molecule": "COP(=O)(NC(C)=O)SC", "note": "(stereo not shown) [Experiment 1, O,S-dimethylacetylphosphoramidothioate]", "values": [{"measurement": "Observed Mortality %", "setting": "insect; Imidacloprid 0 ppm, Acephate 600 ppm", "value": 52.50, "unit": "%"}, {"measurement": "Observed Mortality %", "setting": "insect; Imidacloprid 0 ppm, Acephate 700 ppm", "value": 60.00, "unit": "%"}, {"measurement": "Observed Mortality %", "setting": "insect; Imidacloprid 0 ppm, Acephate 800 ppm", "value": 70.00, "unit": "%"}, {"measurement": "phytotoxicity", "setting": "crop plants", "value": "non-phytotoxic to most crop plants"}, {"measurement": "DT50 (hydrolysis)", "setting": "[2]; pH 3", "value": 710, "unit": "h"}, {"measurement": "DT50 (hydrolysis)", "setting": "[2]; pH 9", "value": 60, "unit": "h"}, {"measurement": "extent to which Acephate degrades", "setting": "[5]; presence of 1% moisture, absence of Citric acid, initial pH of 4.70", "value": 12.84, "unit": "%"}, {"measurement": "extent to which Acephate degrades", "setting": "[5]; presence of Citric acid and 1% moisture, initial pH 3.18", "value": 6.88, "unit": "%"}, {"measurement": "solubility in ethanol", "setting": "[6]; 20° C.", "value": "> 100", "unit": "mg/mL"}, {"measurement": "solubility in water", "setting": "[6]; 20° C.", "value": "about 790 g/l"}]}, {"molecule": "CCN(CC)C(=O)C(Cl)=C(C)OP(=O)(OC)OC", "note": "[Phosphamidon, 2-chloro-2-diethylcarbamoyl-1-methylvinyldimethylphosphate]", "values": [{"measurement": "DT 50 (calculated) (hydrolysis)", "setting": "[2]; pH 5", "value": 60, "unit": "days"}, {"measurement": "DT 50 (calculated) (hydrolysis)", "setting": "[2]; pH 7", "value": 54, "unit": "days"}, {"measurement": "DT 50 (calculated) (hydrolysis)", "setting": "[2]; pH 9", "value": 12, "unit": "days"}, {"measurement": "% of the dose excreted", "setting": "[8]", "value": "85-90%"}]}]}
